{
  "source": "paper PMC9610897",
  "about": "“Cationic Perylene Antivirals with Aqueous Solubility for Studies In Vivo” (Pharmaceuticals, 2022)",
  "key": {"CHIKV": {"system": "CHIKV", "assay": "CHIKV cytopathic effect (CPE) inhibition test", "assay_type": "cell-based, Chikungunya virus (CHIKV, strain Nic)", "conditions": "Chikungunya virus, 120 h; CPE inhibition in Vero cells, 5 days, M ± SD; read-out: Antiviral Activity, EC50 ± SD, CHIKV"}, "in vitro": {"assay": "in vitro", "assay_type": "in vitro ADME", "conditions": "bovine, 80% FBS in 0.05 M PBS pH 7.4, 37 °C, read-out: In vitro FBS half-life (t1/2)", "description": "In vitro stability of 10 was studied in Gibco FBS (Thermo-Fisher Scientific, USA) by following the reported procedure with minor modifications. A 10 mM solution of the compound in DMSO (20 μL) was added to 80% FBS in 0.05 M PBS (pH 7.4) at 37 °C to yield the final concentration of 200 μM. The assays were carried out in triplicate in a water bath at 37 °C. Samples (100 μL) were taken at 0, 15, 30, 45, 60, 90, 120, 180, 240, and 300 min and added to 400 μL acetonitrile in order to deproteinize the plasma. The samples were then shaken for 1 min and centrifuged at 37 °C at 15,000 rpm for 5 min. The supernatants were analyzed by HPLC (detection at 530 nm). AUC values were determined and averaged from three independent experiments. In vitro serum half-life (t1/2) was calculated using the equation t1/2 = 0.693/b, where b is the slope found by linear fitting of the negative natural logarithm of the fraction remaining (AUC0-300/AUC0) vs. incubation time."}, "[1]": {"assay": "Cell viability assay in MDCK cells (MTT)", "assay_type": "cell-based, canine", "conditions": "dog, read-out: Cytotoxicity, CC50 ± SD, MDCK", "description": "(§1) The green monkey kidney (Vero) cell line originated from WHO Biologicals, Switzerland (10–87), and the Madin-Darby canine kidney (MDCK) cell line was obtained from the American Type Culture Collection (ATCC CCL-34).\nCompound solutions were prepared in DMSO (20 mg/mL), and then 2-fold dilutions in cultural medium were prepared starting from 1000 μg/mL. One-day MDCK cell monolayers (over 95% confluency) in 96-well plates ([…]) were washed twice with serum-free alpha-MEM (Thermo-Fisher Scientific, USA) and treated with 100 μL of compound dilutions in 2 replicates. The plates were then incubated for 24 h at 37 °C in a CO2 incubator. Cell viability was assessed using the tetrazolium test (MTT, ApplyChem). Optical density was measured on a Wallac 1420 Victor2 microplate reader (Perkin Elmer, Ramsey, MN, USA) at 535 nm, then CC50 values were calculated."}, "[2]": {"system": "influenza A/California/7/09/MA virus", "assay_type": "in vivo, BALB/c mice", "conditions": "for Average Life Expectancy (M ± SEM): BALB/c mice"}, "IAV": {"system": "IAV", "assay": "IAV virus yield reduction assay", "assay_type": "cell-based, influenza A virus (H1N1, strain A/PR/8/34)", "conditions": "Influenza A virus; virus yield reduction in MDCK cells, MOI 1, 24 h, M ± SD; read-out: Antiviral Activity, EC50 ± SD, IAV", "description": "as §1\n(§2) Viruses and strains used in the present work were severe acute respiratory syndrome-related coronavirus 2 (SARS-CoV-2, strain PIK35, GISAID EPI_ISL_428852), Chikungunya virus (CHIKV, strain Nic, GenBank IDs MN271691-2) and influenza A virus (H1N1, strain A/PR/8/34, ATCC VR-95).\nCompound solutions were prepared in DMSO (20 mg/mL). The compounds were weighed in 2 mg amounts and dissolved in 100 μL of DMSO. Then, a series of 3-fold dilutions was prepared, starting from 300 µg/mL, in a cultural medium. The MDCK cell monolayer was treated with compound dilutions and incubated for 1 h in a CO2 incubator at 37 °C. Untreated cells were used as negative control. Afterward, the virus was added (MOI 1), and cells were incubated for 24 h at 37 °C in a CO2 incubator. After incubation, the culture medium was collected, and viral yields were determined by titration. In brief, a series of 10-fold dilutions (10^−7–10^−1) of viral supernatants were prepared in a cultural medium and applied to daily MDCK cell monolayers. Infected cells were incubated for 72 h at 37 °C in a CO2 incubator. The presence of the virus in the culture supernatants was determined using the hemagglutination assay with a 1% suspension of chicken erythrocytes. Viral titer was calculated according to the Reed-and-Muench method and was expressed as 50% tissue infectious doses (TID50) per 100 μL of volume. Inhibition (%) was calculated by comparison with non-treated cells, and EC50 was calculated from inhibitory curves."}, "[3]": {"assay": "Solubility in water (photometry)", "assay_type": "physicochemical", "description": "The samples were dissolved in DMSO, diluted in series, and photometrically analyzed. The average molar absorption coefficient was calculated from the obtained optical densities of calibration solutions at the absorption maxima. Solubility values were determined as previously described by adding weighed amounts of compounds to distilled water followed by sonication (30 min), centrifugation (12,000 rpm, 10 min), and photometry."}, "[4]": {"assay": "Stability in stomach acid-mimicking 0.16 M aqueous HCl (TLC)", "assay_type": "physicochemical", "description": "Since in vivo evaluation of the leader compound in mouse model involves intragastric administration, stability in stomach acid-mimicking 0.16 M aqueous HCl was assessed. The compound was stable, with slight signs of decomposition as determined by thin-layer chromatography (TLC) for at least 4 h, which exceeds the average residence time of drugs in the stomach. Then, stability in fetal bovine serum (FBS) was evaluated."}, "SARS-CoV-2": {"system": "SARS-CoV-2", "assay": "SARS-CoV-2 cytopathic effect (CPE) inhibition test", "assay_type": "cell-based, strain PIK35", "conditions": "Severe acute respiratory syndrome coronavirus 2, 120 h; CPE inhibition in Vero cells, 5 days, M ± SD; read-out: Antiviral Activity, EC50 ± SD, SARS-CoV-2", "description": "as §1, §2\nThe procedure was described previously. In brief, two-fold dilutions of the compounds were prepared in Dulbecco MEM (Chumakov FSC R&D IBP RAS, Russia) and mixed 1:1 with a virus suspension containing 50–200 TCID50 and incubated for 1 h at 37 °C in a CO2 incubator. The final concentration series started from 100 μM. Then, compound-virus mixtures were added to confluent Vero cell monolayers in 2 replicates. After incubation at 37 °C in a CO2-incubator for 5 days, CPE signs (cell death) were assessed via microscope, and 50% effective concentration (EC50) (compound concentration required to decrease CPE by 50%) was calculated using the Karber method."}, "[5]": {"assay": "Cell viability assay in Vero cells (resazurin)", "assay_type": "cell-based", "conditions": "green monkey, 5 d, read-out: Cytotoxicity, CC50 ± SD, Vero", "description": "as §1\nTwo-fold dilutions of the compounds (starting from 100 μM) were prepared in DMEM (Chumakov FSC R&D IBP RAS, Russia) and added to confluent cell monolayers. After 5 days of incubation (37 °C, 5% CO2), the cultural supernatant was substituted with a resazurin solution (25 μg/mL), followed by 4 h incubation (37 °C, 5% CO2). Then, 20 µL of 10% SDS were added to stop the reaction. Fluorescence intensity was measured with Promega GloMax-Multi Detection System (Ex525/Em580–640). Cells treated with dilutions of the compounds and DMSO, but not resazurin, were used to subtract the background fluorescence. All experimental procedures were performed in two replicates. Fluorescence curves were analyzed with Microsoft Excel 2013. 50% Cytotoxic concentrations (CC50) were calculated."}},
  "note": "Read-outs that look alike come from different tables or passages of the source.",
  "data": [
    {"smiles": "C[n+]1c(C=Cc2ccc3c4cccc5cccc(c6cccc2c63)c54)sc2ccccc21.[Cl-]", "note": "[Compound 10, 3-Methyl-2-(2-(perylen-3-yl)vinyl)benzo[d]thiazol-3-ium chloride]", "values": [
      {"measurement": "EC50", "setting": "CHIKV", "result": "0.99 ± 0.15", "unit": "µM"},
      {"measurement": "half-life at 200 μM", "setting": "in vitro", "result": 2.78, "unit": "h"},
      {"measurement": "CC50 at 24 h", "setting": "[1]", "result": "69 ± 27", "unit": "µM"},
      {"measurement": "Average Life Expectancy (M ± SEM)", "setting": "[2]; 0.5 mg/kg intragastric", "result": "8.6 ± 1.0", "unit": "days"},
      {"measurement": "Protective Index (PI)", "setting": "[2]; 0.5 mg/kg intragastric", "result": 11, "unit": "%"},
      {"measurement": "Average Life Expectancy (M ± SEM)", "setting": "[2]; 4.5 mg/kg intragastric", "result": "8.6 ± 1.2", "unit": "days"},
      {"measurement": "Protective Index (PI)", "setting": "[2]; 4.5 mg/kg intragastric", "result": 22, "unit": "%"},
      {"measurement": "Weight loss (maximum)", "setting": "[2]; mouse, in vivo", "result": "up to 21.3%"},
      {"measurement": "EC50", "setting": "IAV", "result": "22.7 ± 10", "unit": "µM"},
      {"measurement": "Solubility in water (in words)", "setting": "[3]", "result": "substantial solubility"},
      {"measurement": "solubility at 30 min", "setting": "[3]; thermodynamic from solid, distilled water, sonication, centrifugation, photometry", "result": 11, "unit": "mM"},
      {"measurement": "Stability in 0.16 M aqueous HCl, time stable with slight signs of decomposition", "setting": "[4]", "result": "at least 4 h"},
      {"measurement": "EC50", "setting": "SARS-CoV-2", "result": "1.45 ± 0.95", "unit": "µM"},
      {"measurement": "CC50 at 5 days", "setting": "[5]", "result": "> 100", "unit": "µM"}
    ]}
  ]
}
